The values that follow come from US20250000767A1, “FORMULATIONS AND METHODS FOR SKIN REGENERATION” (ENTRINSIC, LLC, priority 2023, published 2025).

Common to all, as to type: cell-based, human
Test [1] has as its system skin barrier marker genes in differentiated NHEK. Put plainly: comparative analysis of qPCR data from two donors with scoring system, single amino acids. The following applies: for ranking as most effective or least effective amino acids (scoring system): qPCR data from two donors. The source says: The scoring system was developed to address the numerous variables arising from the experimental results. […] See, e.g., FIGS. 3 and 4.
(§1) To test the effect of amino acid treatment on epithelial skin barrier, a cellular model of differentiated normal human epidermal keratinocytes (NHEK) was utilized. Commercially available NHEK (ATCC), derived from three diverse healthy donors, were used.
(Real-time PCR tracks product formation cycle by cycle.)

Test [2] deals with EGF, PDGF, FGF2, and PPARD genes (skin barrier markers). The experiment in a line: single amino acids and combinations on barrier marker genes EGF, FGF2, PDGF, PPARD in differentiated NHEK (FIG. 28). The following applies: alone or in combination; action on skin barrier markers. The protocol: Treatment time-4 h. […] Exemplary barrier marker genes examined as follows: Epidermal growth factor (EGF); fibroblast growth factor 2 (FGF2); platelet derived growth factor (PDGF); Peroxisome Proliferator Activated Receptor Delta (PPARD).
Once the skin barrier marker panel was identified, a scoring system by which to evaluate different amino acids or combinations thereof under consideration was developed. The scoring system was developed to address the numerous variables arising from the experimental results. […] Sec, e.g., FIG. 28. […] See, e.g., FIG. 29.
as §1
The marker genes: epidermal growth factor (EGF); platelet-derived growth factor (PDGF), fibroblast growth factor 2 (FGF2), peroxisome proliferator activated receptor delta (PPARD).
Amino acid(s) are mixed in previously established concentrations in water and added to amino acid-deprived culture medium.
mRNA is extracted, converted to cDNA, and analyzed by qPCR method using custom TaqMan array 384-well plates (Thermo Fisher Scientific) containing the above-mentioned genes. Control housekeeping genes were included to normalize the mRNA expression: GAPDH and/or YWHAZ. The array plate contained the genes and samples were analyzed in by qPCR.

A further test has as its system COL1A1 mRNA. Put plainly: COL1A1 mRNA fold change in donor keratinocytes, 4GAA and retinol (qPCR). The following applies: 4 h, amino acid-deprived medium, 4GAA 4 mM, ROL 10 μM. On the procedure: (§2) FIGS. 17A-17C show the fold change of a specific gene mRNA comparing the 4 amino acid combination (Ala, Gln, Gly, Ser; 4GAA; 4 mM), and retinol (ROL; 10 μM), alone or in combination, to control (CTR; untreated control without amino acids or retinol) with Donor E, Donor G. Donor O, Donor R, and Donor T human-derived epidermal keratinocytes (NHEK) with a 4 h treatment in amino acid (AA)-deprived medium. The data are shown in graphical form showing CTR; 4GAA (4 mM); ROL (10 μM); 4GAA (4 mM)+ROL (10 μM) combination.
(§3) Keratinocytes from different donors (e.g., human-derived epidermal keratinocytes (NHEK)), skin equivalents (e.g., 3D models (human epidermal skin equivalents)), or fibroblasts (e.g., human dermal fibroblasts, adult (HDFa)) were cultured in amino acid-deprived media or complete media for 4 hours or 24 hours after complete differentiation and, in parallel, were treated with an amino acid combination (4GAA; alanine, glutamine, glycine, serine) at 4 mM, 10 μM retinol (ROL), or the combination of 4 mM 4GAA and 10 μM ROL. Cells were harvested, RNA was extracted, and qPCR analysis was performed with a housekeeping gene, e.g., GAPDH.
(§4) FIGS. 17A-17C and 18A-18C show the graphical results of the fold change, where the average fold change is depicted by the horizontal bar for each condition and each of the donors (Donors E, G, O, R, T) is depicted by a colored circle. […]

The next test relates to HAS3 mRNA. The experiment in a line: HAS3 mRNA fold change in donor keratinocytes, 4GAA and retinol (qPCR). The following applies: 4GAA 4 mM, ROL 10 μM. The protocol: (§5) FIGS. 18A-18C show the fold change of a specific gene mRNA comparing the 4 amino acid combination (Ala, Gln, Gly, Ser; 4GAA; 4 mM), and retinol (ROL; 10 μM), alone or in combination with Donor E. Donor G. Donor O. Donor R. and Donor T human-derived epidermal keratinocytes (NHEK) to control (CTR; untreated control without amino acids or retinol) with a 4 h treatment in amino acid (AA)-deprived medium. The data of FIGS. 18A-18C are shown in graphical form showing CTR; 4GAA (4 mM); ROL (10 μM); 4GAA (4 mM)+ROL (10 μM) combination. […] FIGS. 18D-18F show the data in tabular form (Donor E (n=3). Donor G (n=3). Donor O (n=3). Donor R (n=3), and Donor T (n=3)) for fold change of HAS1 mRNA. HAS2 mRNA, and HAS3 mRNA, respectively, and in tabular form showing the fold change for each of the specified conditions under each respective graphical form.
(§6) FIGS. 19A-19D show the fold change of a specific gene mRNA comparing the 4 amino acid combination (Ala. Gln. Gly, Ser; 4GAA; 4 mM), and retinol (ROL; 10 μM), alone or in combination to control (CTR; untreated control without amino acids or retinol) with Donor O human-derived epidermal keratinocytes (NHEK) with a 24 h treatment in complete medium. The data of FIGS. 19A-19D are shown in graphical form showing CTR; 4GAA (4 mM); ROL (10 μM); 4GAA (4 mM)+ROL (10 μM) combination. […]

The test system of another test is TGFB mRNA. The experiment in a line: TGFB mRNA fold change in donor keratinocytes, 4GAA and retinol (qPCR). The following applies: 4 h, amino acid-deprived medium, 4GAA 4 mM, ROL 10 μM. On the procedure: as §2, §3, §4
The subject of the next test is HAS2 mRNA. The experiment in a line: HAS2 mRNA fold change in donor keratinocytes, 4GAA and retinol (qPCR). Conditions: 4GAA 4 mM, ROL 10 μM. The protocol: as §5, §6
[3] abbreviates: Donor O and Donor R keratinocytes, 24 h, complete medium.
Setting [4] is: donor keratinocytes, 4 h, amino acid-deprived medium.

Consider `N=C(N)NCCC[C@H](N)C(=O)O` [Arg, arginine], for which the “effects in preliminary screens” value in test [1] is given as “positive effects”. The “effect on skin regeneration including skin barrier function” value in test [2] is on record as “beneficial effect”.
For the compound `N[C@@H](Cc1c[nH]c2ccccc12)C(=O)O` [Trp, tryptophan], the “effects in preliminary screens” value in test [1] is “positive effects”. Also, the “effect on skin regeneration including skin barrier function” value in test [2] is listed as “beneficial effect”.
`C[C@H](N)C(=O)O` [Ala, alanine]: the “ranking as most effective or least effective amino acids (scoring system)” value (shortened to “ranking”) in test [1] is listed as “most effective”. For the same compound, the “effect on skin regeneration including skin barrier function” value in test [2] is recorded as “beneficial effect”.
As to `NCC(=O)O` [Gly, glycine], the “ranking” value in test [1] is given as “most effective”. The “effect on skin regeneration including skin barrier function” value in test [2] is recorded as “beneficial effect”.
Take `CC(C)[C@H](N)C(=O)O` [valine]: the “effect on skin regeneration including skin barrier function” value in test [2] is listed as “beneficial effect”.
On to `N[C@@H](Cc1ccc(O)cc1)C(=O)O` [Tyr, tyrosine], for which the “ranking” value in test [1] is given as “least effective”.
As to `CC1=C(/C=C/C(C)=C/C=C/C(C)=C/CO)C(C)(C)CCC1` [ROL, retinol], the “COL1A1 mRNA expression” value in the test with COL1A1 mRNA was “upregulated”. Also, the “HAS3 mRNA gene expression” value in the test with HAS3 mRNA (setting [3]) is on record as “upregulated”. The HAS3 gene expression entry in the test on HAS3 mRNA (setting [4]) is on record as “upregulated”. In the test with TGFB mRNA, the “TGFB mRNA expression” value is “upregulated”. For the same compound, in the test with HAS2 mRNA (setting [3]), the “HAS2 mRNA gene expression” value was “upregulated”. Also, the HAS2 gene expression result with HAS2 mRNA (setting [4]) is recorded as “upregulated”.
Regarding `N[C@@H](CS)C(=O)O` [Cys, cysteine], in test [1], the “ranking” value is “least effective”.
With `C[C@@H](O)[C@H](N)C(=O)O` [Thr, threonine], the “ranking” value in test [1] is recorded as “least effective”. Besides, the “effect on skin regeneration including skin barrier function” value in test [2] is recorded as “beneficial effect”.
For the compound `NC(=O)CC[C@H](N)C(=O)O` [Gln, glutamine], the “ranking” value in test [1] is “most effective”. Also, the “effect on skin regeneration including skin barrier function” value in test [2] is on record as “beneficial effect”.
In the case of `N[C@@H](CC(=O)O)C(=O)O` [Asp, aspartic acid], the “ranking” value in test [1] is reported as “least effective”.
On to `CC[C@H](C)[C@H](N)C(=O)O` [isoleucine], for which, in test [2], the “effect on skin regeneration including skin barrier function” value was “beneficial effect”.
With `N[C@@H](CO)C(=O)O` [Ser, serine], the “ranking” value in test [1] is reported as “most effective”. Also, the “effect on skin regeneration including skin barrier function” value in test [2] is “beneficial effect”.
`O=C(O)[C@@H]1CCCN1` [Pro]: the “ranking” value in test [1] is “least effective”.
